Results reported in patent US20110300532A1, “CONTROL OF THE TOXICITY OF GOLD NANOPARTICLES” (priority 2009, published 2011).
Several values for one entry are separate records, joined by “and”; a condition that tells them apart may be missing. Identical values can stand only once. Entries after “also recorded” stand apart in the source; their conditions may differ. Like-named read-outs stand apart in the source and are kept apart here. Where a SMILES comes first, the peptide text is derived from it. The star is where a group is joined. Cbz = O=C(OCc1ccccc1)*; CH2F = FC*

How the values were obtained:
[1] = tested on: HeLa cells; settings: for cell survival: cells pretreated with antioxidant 3 hours, washed, post-treated with 100 μM Au1.4MS 48 hours
Experimental: A) untreated cells. B) cells treated with Au1.4MS for 48 hours. C) cells pretreated with antioxidant/reducing agent for 3 hours, washed and post-treated with Au1.4MS for 48 hours. D) Au1.4MS pre-treated with antioxidant/reducing agent for 3 hours, mixture added to cells for 48 hours. E) cells pre-treated with antioxidant/reducing agent for 3 hours, then added Au1.4MS and incubated for 48 hours. F) Antioxidant/reducing agent mixed with Au1.4MS and mixture immediately added to cells and incubated for 48 hours. G) cells incubated with antioxidant/reducing agent for 48 hours.
HeLa cells were plated in 96-well microtiter plates at initial densities of 2,000 in 100 μL and were incubated for 72 hours before adding reagents. Fresh medium containing nanoparticles and/or antioxidants (reducing agents) was added to each well and cells were incubated for another 48 hours. […] Antioxidants/Reducing agents were freshly prepared by dissolving the powders in H2O to 200 mM and further diluted in fresh cell culture medium to working concentration.

[2] = tested on: HeLa cells; assay: Flow cytometric determination of oxidative stress (CM-H2DCFDA); type: cell-based, human
Experimental: Applicant also studied the oxidative stress and mitochondrial damage induced by Au1.4MS nanoparticles. […] Applicant used 0.3% H2O2 as a positive control.
Flow cytometric determination of oxidative stress. HeLa cells were plated in 6-well plates at initial densities of 40,000 in 2 mL grown for 72 hours. Fresh medium containing nanoparticles (100 μM Au1.4MS, 1000 μM Au1.1GSH and Au15MS) was added to the cells and incubated for 0, 6, 12, 18, 24, 48 hours. All cell-material combinations were set up in triplicates. After the AuNP incubation, cells were trypsinized and rinsed with PBS. After rinsing cells were suspended in a buffer containing 5-(and-6)-chloromethyl-2′7′-dichlorodihydrofluorescein diacetate acetyl ester (CM-H2DCFDA) (Molecuar Probes/Invitrogen). Cells were incubated for 30 minutes at 37° C. as described by the manufacturer. Shortly, 50 μg CM-H2DCFDA powder was dissolved in 100 μL ethanol as stock solution and was kept in −20° C. For cell assays the stock solution was freshly diluted in PBS to a final working concentration of 2.5 μM. Cells incubated with 0.3% H2O2 for 30 minutes served as positive control. 20,000 cells were analysed using FACSCalibur or FACSCanto flow cytometers and CELL-Quest software (Becton-Dickinson).

[3] = tested on: HeLa cells; assay: Inhibition of apoptosis by caspase inhibitor Z-VAD-fmk (cell survival); type: cell-based, human
Experimental: Apoptosis is predominantly caspase-mediated and can be blocked by Z-VAD-fmk whereas necrosis cannot.
Inhibition of apoptosis. HeLa cells were plated in 96-well microtiter plates at initial densities of 2,000 in 100 μL and were incubated for 72 hours before adding reagents. Cells were left untreated or were pre-treated with the caspase inhibitor Z-VAD-fmk for 3 hours (BACHEM N1510). A stock solution of 100 mM Z-VAD-fmk in DMSO was prepared and kept at −20° C. Working solution was freshly prepared by diluting the stock solution in fresh cell culture medium.

[4] = tested on: HeLa cells; assay: Cell cycle and DNA content measurement using flow cytometry (propidium iodide); type: cell-based, human
Experimental: The protein p53 controls both the G2/M and the G1 cell cycle checkpoints and mediates reversible growth arrest in apoptotic fibroblasts (cf. M. Agarwal, A. Agarwal, W. Taylor, G. Stark, Proc Natl Acad Sci USA 1995, 92, 8493). To gain insight into the cell cycle progression in the context of Au1.4MS cytotoxicity, applicant measured the cellular DNA content and mitotic index of HeLa cells. […] Cells staining intermediary reside in S phase. When the HeLa cells were treated with staurosporine (curve 2) to trigger apoptosis the relative proportion of cells in G2 phase increased to 50% indicating a G2/M block of the cells. Together with the sub G1 peak and the low fluorescent peak indicating DNA fragments this pattern was typical of apoptosis. […] This is further corroborated by the fact that caspase activation, which is likewise a late event in apoptosis, but not in necrosis, was low in Au1.4MS treated cells and furthermore, that caspase inhibition by Z-VADfmk enhanced cell viability in staurosporine treated (apoptotic) cells, but not in Au1.4MS treated (secondary necrotic) cells (FIG. 4, 5).
Cell cycle and DNA content measurement using flow cytometry. HeLa cells were plated in 6-well plates and incubated for 72 hours before adding nanoparticles. […] 20,000 cells were analysed using FACSCalibur or FACSCanto flow cytometers and CELL-Quest software (Becton-Dickinson).

[5] = tested on: caspase 3/7; assay: Fluorogenic caspase activity determination (Apo-ONE caspase-3/7 assay); type: cell-based, human
Experimental: To confirm that the cells underwent necrosis instead of apoptosis applicant measured the caspase 3/7 activity (FIG. 4) using the fluorogenic substrate rhodamine 110 bis-(N-CBZ-L-aspartyl-L-glutamyl-L-valyl-aspartic acid amide), Z-DEVD-R110. Caspase 3/7 enzymes cleave carboxy-terminal to the aspartate in the DEVD peptide thus converting the substrate into fluorescent rhodamine. […] Thereafter caspase 3/7 activity declined until the end of the experiment at 48 hours.
Fluorogenic caspase activity determination. […] Cells were rinsed and 30 μL of medium containing 50 μM Au1.4MS was added. Untreated cells served as negative control and cells treated with 0.2 μM staurosporine served as a positive control. Apoptosis was measured using the fluorogenic caspase substrate, Apo-ONE® homogeneous caspase-3/7 assay (Promega) as described by the manufacturer. Briefly, Apo-ONE® stock solution (100fold working concentration) was […] in Apo-One® buffer and 30 μL of this was added to each well and incubated at 23° C. for 3 hours. 50 μL of the clear supernatant was transferred to a black microtiter plate and measured using a Fluorostar plate fluorometer (BMG Labtech, Offenburg, Germany) at excitation wavelength 485 nm and emission wavelength 520 nm.

In the case of `N[C@@H](CCC(=O)N[C@@H](CS)C(=O)NCC(=O)O)C(=O)O` [GSH, glutathione], the “inhibition of the cytotoxicity of 100 μM Au1.4MS” value (“inhibition” below) [1] was “partially inhibit” and the cell survival ([1]; NAC 3 mM, others 1 mM) was 15%.
With `OO` [H2O2] the “oxidative stress (intracellular ROS, CM-H2DCFDA fluorescence)” value ([2]; 0.3% for 30 minutes, positive control) was “strong oxidative stress; also recorded: strong ROS generation”.
`CC(=O)N[C@@H](CS)C(=O)O` [NAC, N-acetylcysteine] was tested, and the “inhibition” value [1] was “partially inhibit” and the cell survival ([1]; NAC 3 mM, others 1 mM) was 7%.
In the case of `O=S(=O)([O-])c1cccc(P(c2ccccc2)c2ccccc2)c1.[Na+]` [TPPMS, triphenylphosphine monosulfonate], the “increase in intracellular fluorescence (ROS)” value ([2]; ligand alone, not shown) was “did not cause an increase in intracellular fluorescence”, the “inhibition” value ([1]; HeLa, 48 hours, NAC 3 mM, others 1 mM) was “partially inhibit” and the cell survival ([1]; NAC 3 mM, others 1 mM) was 11%.
In the case of `COC(=O)C[C@H](NC(=O)[C@H](C)NC(=O)[C@@H](NC(=O)OCc1ccccc1)C(C)C)C(=O)CF` [Z-VAD-fmk] (Cbz-Val-Ala-Asp(OMe)-CH2F), the “survival of staurosporin-treated HeLa cells after adding Z-VAD-fmk” value ([3]; 32 μM Z-VAD-fmk, 48 hours) was 84% and 83%, the “survival of staurosporin-treated HeLa cells after adding Z-VAD-fmk” value ([3]; 500 μM Z-VAD-fmk, 48 hours) was 90% and the “effect of Z-VAD-fmk on survival of Au1.4MS treated cells” value ([3]; HeLa cells) was “did not increase the survival; also recorded: did not increase cell survival”.
Work on `O=C1O[C@H]([C@@H](O)CO)C(O)=C1O` [ascorbic acid] yielded a cell survival ([1]; NAC 3 mM, others 1 mM) of 6%.
`CN[C@@H]1C[C@H]2O[C@@](C)([C@@H]1OC)n1c3ccccc3c3c4c(c5c6ccccc6n2c5c31)C(=O)NC4` [staurosporine] was tested, and the “DNA content / cell cycle pattern” value ([4]; propidium iodide flow cytometry, 100 μM Au1.4MS) was “hypodiploid peak in DNA content typical of G2/M arrest and apoptosis”, the “relative proportion of cells in G2 phase” value ([4]; staurosporine treated HeLa cells) was 50% and the cell survival ([3]; staurosporine alone, 48 hours) was 47%. The “incubation time of peak caspase 3/7 activity” value ([5]; 0.2 μM staurosporine or 50 μM Au1.4MS) was 12 h, the “Caspase 3/7 activity increase” value ([5]; 0.2 μM staurosporine, HeLa) was 6.5 fold and the “intracellular caspase 3/7 activity increase over background” value ([5]; 0.2 μM staurosporine, within 6 hours) was 6 fold.
